# Earlier results, collected in patent US9090623B2, “Compound JK12A and preparation thereof” (LIANYUNGANG JINKANG HEXIN PHARMACEUTICAL CO., LTD., priority 2012, dated 2015).
# Tested on: HeLa S3 cells
# Details: reported in Org. Lett. 2008, 10, 489-491; cited from earlier work
smiles,measurement,value
COC(=O)c1ccc(N2CC3CNC(=O)C2(C(=O)OC)N3C)cc1 (stereo not shown) [Aplaminal],cytotoxicity against HeLa S3 cells IC50,0.51 µg/mL
